Results on 1 compound are retold here after patent publication US20200329698A1, “COMPOSITIONS FOR ORGAN GRAFT PRESERVATION AND METHODS OF USE” (Nobilis Therapeutics, Inc., priority 2019, published 2020).

The assay relates to Lewis rat lung grafts extracted after cardiac death. Here is the method:
Inbred adult male Lewis rats (LEW, RT1^1) weighing 225-250 g were purchased from Harlan, UK and bred in temperature- and humidity-controlled cages in a specific pathogen-free facility at the Chelsea-Westminster Campus, Imperial College London. All animal procedures were carried out in accordance with the United Kingdom Animals (Scientific Procedures) Act of 1986. For cardiac arrest model (DCD donor) in anaesthetized rats, anticoagulation was accomplished by injecting 250 U Heparin in 1 ml saline via the penile vein. Five minutes after heparinization, a laparotomy was performed through a midline incision. A thoracotomy was performed followed by induction of cardiac arrest by external compression of the heart for 5 min. After induction of cardiac arrest, the aorta was closed using a vascular clamp rostral from the heart. The thoracotomy wound was covered with gauze and kept moist with 0.9% NaCl. After 40 minutes in DCD donors, the entire graft, lung or kidney, in the donor was isolated and excised. Lung grafts were flushed through the main pulmonary artery and stored at 4° C. for 16 hours with either control UW solution or UW with Dex (0.1 nM) solution. Lung or kidney grafts were fixed in 4% parafamydehyde and paraffin. Sections of 5-μm thickness were taken from the kidney specimens and haematoxylin & eosin (H&E) staining was carried out. Lung cell morphology in each graft (10 fields in the cortex at ×20 magnifications) was evaluated by an observer blinded to the treatment using an OLYMPUS™ (Watford, UK) BX4 microscope under constant exposure level. The score for each field was calculated from the sum score of 10 areas chosen at a random. For the lung sections, the injury was categorised into Grade 0: normal appearance, negligible damage; Grade 1: mild moderate interstitial congestion and neutrophil leukocyte infiltrations; Grade 2: perivascular oedema formation, partial destruction of pulmonary architecture and moderate cell infiltration; Grade 3: moderate lung alveolar damage and intensive cell infiltration; Grade 4: severe cell infiltration and severe destruction of the pulmonary architecture. For in vivo fluorescence or DAB staining, 25-μm frozen lung sections were incubated with rabbit anti-Rip1 (1:200, SANTA CRUZ BIOTECHNOLOGY®), rabbit anti-Rip3 (1:200, SANTA CRUZ BIOTECHNOLOGY®), mouse anti-HMGB-1 (1:200, Abcam), Goat anti-TLR-4 (1:200, SANTA CRUZ BIOTECHNOLOGY®), rabbit anti-Nrf-2 (1:200, SANTA CRUZ BIOTECHNOLOGY®), mouse anti-SOD-1 (1:200, Abcam), mouse anti-NQO-1 (1:200 Abcam), rabbit anti-3-nitrotyrosine (1:200, Abcam) and rabbit anti-4-hydroxynonenal (1:200, Abcam) at 4° C. overnight. After washing with PBST, the slides were incubated with fluorochrome-conjugated secondary antibodies (MILLIPORE™, UK). For double-labelled immunofluorescence, lung samples were incubated with the first primary antibody overnight, followed by the first secondary antibody, and then the second primary antibody and the second secondary antibody. The slides were counterstained with nuclear dye DAPI and mounted with […]® Mounting Medium (Vector lab, USA). Sections were examined using an OLYMPUS™ (Watford, UK) BX4 microscope under constant exposure level. Immunofluorescence was quantified using ImageJ (National Institutes of Health, Maryland, USA) and the background was subtracted. Ten representative regions per section (in vivo) or field (in vitro) were randomly selected by an assessor blinded to the treatment groups. Values were then calculated as percentages of the mean value for naïve controls and expressed as percentage fluorescence intensity. Lung alveolar cell death was detected by the in situ TUNEL assay (MILLIPORE™) according to the manufacturer's instructions. TUNEL nuclei were visualized by green FITC fluorescence. Tumor necrosis factor-α (TNF-α) in the culture medium were detected by ELISA (Human TNF-α ELISA kits, INVITROGEN®, UK). Rat lung tissue and serum TNF-α were measured by ELISA (Rat TNF-α ELISA kits, INVITROGEN®, UK). […]

Setting [1] is: Dex 0.1 nM in UW at 4° C., CI 16 hr, vs vehicle.
[2] abbreviates: Dex-saturated UW, CI 16 h, p<0.001.
Setting [3] is: Dex-saturated UW, CI 16 h, p<0.05.

In the case of `Cc1cccc([C@H](C)c2cnc[nH]2)c1C` [Dexmedetomidine], under setting [1], the HMGB-1 release entry is “reduction”, the “TLR-4 activation (fluorescent intensity)” value is on record as “reduction”, the “cell death (TUNEL staining)” value is reported as “reduced cell death” and the “concentration of HMGB-1 in lung graft tissue (ELISA)” value is given as “significantly reduced”. In addition, under setting [1], the “concentration of IL-1β in lung graft tissue (ELISA)” value is listed as “significantly reduced”, the “concentration of TNF-α in lung graft tissue (ELISA)” value is listed as “significantly reduced”, the “expression of necroptosis marker RIP1 (fluorescent intensity)” value is “significantly reduced” and the “expression of necroptosis marker RIPS (RIPK3 fluorescent intensity)” value was “significantly reduced”. Moreover, the “lung morphology (H&E, lung injury scoring)” value under setting [1] was “marked improvement in morphology”. For the setting “Dex-saturated UW, CI 16 h, vs control group, p<0.001”, the “expression of 3-nitrotyrosine (fluorescent intensity)” value was “significant reduction”. In addition, the “expression of 4-hydroxynonenal (fluorescent intensity)” value (Dex-saturated UW, CI 16 h, vs control group, p<0.05) is recorded as “significant reduction”. Moreover, under setting [2], the “expression of Nrf-2 (fluorescent intensity)” value is listed as “significant increase”, the “expression of SOD-1 (fluorescent intensity)” value is listed as “significant increase” and the “lung tissue GSH/GSSG ratio” value is “significant increase”. The “lung tissue GSSG level” value (Dex-saturated UW, CI 16 h, p<0.01) is listed as “significant decrease”. Under setting [3], the “expression of NQO-1 (fluorescent intensity)” value is reported as “significant increase” and the “lung tissue GSH level” value was “significant increase”.
